Experimental data from patent publication US20260007673A1, “ROCK2 INHIBITORS FOR THE TREATMENT OF VIRAL INFECTIONS” (GRAVITON BIOSCIENCE BV, priority 2022, published 2026).
“Also recorded” adds a separate entry of the source.

Key:
[1] = test system: SARS-CoV-2 2019-nCoV/USA-WA1/2020 strain; experiment: Lung viral load by qPCR in infected human ACE2 transgenic mice; type: in vivo; details: mice infected with 100 or 1000 pfu; 300 mg/kg daily oral gavage; 7, 14, 21 days; vs vehicle and remdesivir (FIGS. 13-14)
[2] = test system: SARS-CoV-2; experiment: In vitro SARS-CoV-2 model in primary human airway epithelial cells, viral load by qRT-PCR; type: cell-based; details: 5 μM and 25 μM, read at 24 and 48 hours (FIGS. 11-12)
Description: A 50 mM stock solution of Compound 2 (in DMSO) was diluted using PBS to concentrations of 100, 75, 50, 25, 10, 5, 1, 0.3, 0.1, and 0.03 μM. About 30,000 immortalized human airway epithelial cells (Calu-3) (see, FIG. 1-10) or primary human airway epithelial cells (Normal Human Small Airway Epithelial Cells; Sigma) (see, FIGS. 11-12) were grown to about 100,000 cells per well in a 96-well format. The cells were challenged with 10^2 or 10^3 PFU SARS-CoV-2 (standard CDC SARS-CoV-2 strain) in triplicate and incubated for 6 h at 37° C., followed by washing. The cells were then treated with Compound 2 or negative control by adding 10 μL of a solution of Compound 2 (0.03-100 μM) or negative control solution (DMSO in PBS) in triplicate and incubating for 2 h at 37° C. A positive control consisted of remdesivir (RDV; 10 μM). […] The cells were maintained until the second endpoint readout at 48 h (the first occurring at 24 h post-infection). […]
Viral infection/load was analyzed by qPCR (qRT-PCR). […] Viral or host RNA levels in the supernatant were determined using the TaqPath™ 1-Step RT-qPCR Master Mix (Thermo Fisher) on a CFX Connect Real-Time System (Bio-Rad) instrument using the following primers: Fwd: 5′-[…]-3′; Rev. […]
Datasets were analyzed and plotted in GraphPad Prism (version 9.0.2). […]

[3] = test system: SARS-CoV-2; experiment: 7-day clinical trial in patients with mild to moderate COVID-19; type: in vivo
[4] = test system: Calu-3 cells; experiment: Cellular toxicity: LDH assay; type: cell-based, human; details: 0.03-100 μM, LDH assay at 48 h (FIGS. 4-5)
Description: The toxicity of Compound 2 was measured at concentrations of 0.1, 0.3, 1, 10, 25, 50, 75, and 100 μM in Calu-3 cells by LDH ([…] dehydrogenase) assay (Clontech) according to the manufacturer's instructions. A positive control consisted of saponin (0.5%). A negative control consisted of DMSO (0.2%).

[5] = test system: SARS-CoV-2 infected lung tissue; experiment: Lung fibrosis by H&E staining in infected human ACE2 transgenic mice; type: in vivo; details: infected mouse lung tissue 7, 14, 21 days after infection; vs vehicle (FIG. 16)
[6] = test system: SARS-CoV-2; experiment: In vitro SARS-CoV-2 model in immortalized human airway epithelial cells (Calu-3), viral load by qRT-PCR; type: cell-based; details: for inhibition of viral replication (viral titers): 10 μM
Description: A 50 mM stock solution of Compound 2 (in DMSO) was diluted using PBS to concentrations of 100, 75, 50, 25, 10, 5, 1, 0.3, 0.1, and 0.03 μM. About 30,000 immortalized human airway epithelial cells (Calu-3) (see, FIG. 1-10) or primary human airway epithelial cells (Normal Human Small Airway Epithelial Cells; Sigma) (see, FIGS. 11-12) were grown to about 100,000 cells per well in a 96-well format. The cells were challenged with 10^2 or 10^3 PFU SARS-CoV-2 (standard CDC SARS-CoV-2 strain) in triplicate and incubated for 6 h at 37° C., followed by washing. The cells were then treated with Compound 2 or negative control by adding 10 μL of a solution of Compound 2 (0.03-100 μM) or negative control solution (DMSO in PBS) in triplicate and incubating for 2 h at 37° C. A positive control consisted of remdesivir (RDV; 10 μM). An additional control (3 wells) was treated with Compound 2 at the highest concentration, but not challenged with virus. The cells were maintained until the second endpoint readout at 48 h (the first occurring at 24 h post-infection). In some instances, the cellular media was replaced 24 h after infection with untreated culture medium (“unmediated medium”) or culture medium containing the positive control (RDV) or Compound 2 (“mediated medium”), see, FIG. 10.
Viral infection/load was analyzed by qPCR (qRT-PCR). RNA from cells was extracted with TRIzol reagent (Thermo Fisher) according to manufacturer's instructions. Viral or host RNA levels in the supernatant were determined using the TaqPath™ 1-Step RT-qPCR Master Mix (Thermo Fisher) on a CFX Connect Real-Time System (Bio-Rad) instrument using the following primers: Fwd: 5′-[…]-3′; Rev. 5′-[…]-3′.
Datasets were analyzed and plotted in GraphPad Prism (version 9.0.2). Analytic simulations of dose-response curves using the median-effect principle and mass-action Law were carried out using CompuSyn (https://www.combosyn.com/).

Cn1c(C(=O)N2CC(F)(F)C2)cc2ccc(-c3nccc(Nc4ccc(-c5cn[nH]c5)cc4)n3)cc21 [Compound 2, (6-(4-((4-(1H-pyrazol-4-yl)phenyl)amino)pyrimidin-2-yl)-1-methyl-1H-indol-2-yl)(3,3-difluoroazetidin-1-yl)methanone]
viral load in the lung [1]: significantly reduced viral load | efficacy against SARS-CoV-2 infection (viral concentration) [2]: efficacy at 5 μM and 25 μM concentrations | clinical efficacy in treating mild to moderate COVID-19 ([3]; 200 mg or 400 mg once daily for 7 days plus standard of care (FIGS. 17-20)): clinical efficacy | viral titers, as negative conversion rates of SARS-CoV-2 nucleic acid detection ([3]; 200 mg or 400 mg once daily for 7 days, relative to Control (FIG. 18)): lower viral titers | inflammation, as levels of interleukin 6 ([3]; 200 mg/day and 400 mg/day (FIG. 19)): reduced levels of inflammation | inflammation, as levels of C-reactive protein (CRP) ([3]; 200 mg/day and 400 mg/day (FIG. 20)): reduced levels of inflammation | relief rate of sustained clinical symptoms ([3]; 400 mg once daily for 7 days, relative to Control and to 200 mg (FIG. 17)): substantial improvement | cellular toxicity by LDH [4]: low cellular toxicity | pulmonary fibrosis (histology) [5]: reducing pulmonary fibrosis; also recorded: reduces lung fibrosis | inhibition of viral replication (viral titers) ([6]; Calu-3, read at 24 and 48 hours, compared to negative control (0.1% DMSO) and positive control (RDV) (FIGS. 6-7)): inhibiting viral replication | inhibition of viral replication (viral titers) ([6]; Calu-3, read at 24 and 48 hours, treated 0, 2, 4, 8 h post-infection, compared to control (FIGS. 1-3)): inhibiting viral replication | dose response of inhibition of viral replication ([6]; Calu-3, 1, 5, 10 and 25 μM, read at 24 and 48 hours, given 0-10 h after infection (FIGS. 8A-9F)): Dose responses were observed at all time points | viral concentration after repeat dosing ([6]; Calu-3, 48 h after infection, medium containing compound replenished at 24 h (FIG. 10)): further decreased viral concentration | viral titers of SARS-CoV-2 ([6]; immortalized human airway epithelial cells infected with SARS-CoV-2, FIGS. 1-12): substantially reduce viral titers
